In patent publication US20170232083A1, “METHODS OF DIAGNOSIS AND TREATMENT OF CELIAC DISEASE IN CHILDREN” (priority 2014, published 2017):

Tested on: PBMC (polyclonal gluten-specific T cells) of paediatric and adult CD patients
Test: IFN-γ ELISpot of PBMC after 3 day oral wheat challenge (SFU, % of maximal peptide response, dominance scores, EC50; Examples 5-6)
Format: cell-based, human
Conditions: for IFN-γ ELISpot response: after oral wheat challenge; for Cross-reactive T cell response: following wheat challenge
[1] = patient A, 11-17 yrs, cut-off 10 SFU
[2] = patient D, max peptide 30.5 SFU
[3] = patient E, H, 11-17 yrs, cut-off 10 SFU
[4] = patient F, 11-17 yrs, cut-off 10 SFU
[5] = patient G, 11-17 yrs, cut-off 10 SFU
[6] = patient H (HLA-DQ2.5 homozygote), 3-5yrs, cut-off 10 SFU
[7] = patient H, 11-17 yrs, cut-off 10 SFU
[8] = patient ID not given, 11-17 yrs, cut-off 10 SFU
[9] = patient ID not given, max peptide 95 SFU
[10] = patient N, 3-5yrs, cut-off 10 SFU
[11] = patient P, 11-17 yrs, cut-off 21.6 SFU
[12] = patient Q, 11-17 yrs, cut-off 10 SFU
[13] = patient U, H, 11-17 yrs, cut-off 10 SFU
[14] = patient V, 6-10 yrs, cut-off 10 SFU
[15] = patient Y, 6-10 yrs, cut-off 10 SFU
[16] = patient eleven, 6-10 yrs, cut-off 10 SFU
[17] = patient five, max peptide 48 SFU
[18] = patient four, 3-5yrs, cut-off 10 SFU
[19] = patient seven, 6-10 yrs, cut-off 10.5 SFU
[20] = patient ten, 3-5yrs, cut-off 10 SFU
[21] = patient three, 6-10 yrs, cut-off 10.5 SFU
[22] = patient twelve, 11-17 yrs, cut-off 10 SFU
[23] = patient two, 3-5yrs, cut-off 10 SFU
[24] = patient two, max peptide 60 SFU

Sequence: PFPEQPEQPFPQP
- IFN-γ ELISpot response [1]: 4 SFU
- Significant response as percentage of maximal peptide SFU [2]: ′′ (21-40% = ′′)
- IFN-γ ELISpot response [3]: 30 SFU
- Significant response as percentage of maximal peptide SFU (patient E, max peptide 224 SFU): ′ (11-20% = ′)
- IFN-γ ELISpot response [4]: 32 SFU
- Significant response as percentage of maximal peptide SFU (patient F, max peptide 178 SFU): ′ (11-20% = ′)
- IFN-γ ELISpot response [5]: 5 SFU
- IFN-γ ELISpot response [6]: 19 SFU
- IFN-γ ELISpot response [7]: 17 SFU
- Significant response as percentage of maximal peptide SFU (patient H, max peptide 17 SFU): + (>70% = +)
- IFN-γ ELISpot response [8]: 24 SFU
- Significant response as percentage of maximal peptide SFU [9]: ′′ (21-40% = ′′)
- Significant response as percentage of maximal peptide SFU (patient J, max peptide 196 SFU): ′′ (21-40% = ′′)
- Significant response as percentage of maximal peptide SFU (patient K, max peptide 53 SFU): ′′ (21-40% = ′′)
- Significant response as percentage of maximal peptide SFU (patient M, max peptide 48 SFU): ′′ (21-40% = ′′)
- IFN-γ ELISpot response [10]: 2 SFU
- IFN-γ ELISpot response [11]: 8 SFU
- IFN-γ ELISpot response [12]: 35 SFU
- Significant response as percentage of maximal peptide SFU (patient Q, max peptide 97 SFU): ′′ (21-40% = ′′)
- IFN-γ ELISpot response [13]: 13 SFU
- Significant response as percentage of maximal peptide SFU (patient U, max peptide 81 SFU): ′ (11-20% = ′)
- IFN-γ ELISpot response [14]: 16 SFU
- Significant response as percentage of maximal peptide SFU (patient V, max peptide 35 SFU): ′′′ (41-70% = ′′′)
- IFN-γ ELISpot response [15]: 4 SFU
- IFN-γ ELISpot response [16]: 4 SFU
- Significant response as percentage of maximal peptide SFU [17]: ′′ (21-40% = ′′)
- IFN-γ ELISpot response [18]: 6 SFU
- IFN-γ ELISpot response [19]: 9 SFU
- IFN-γ ELISpot response [20]: 5 SFU
- IFN-γ ELISpot response [21]: 51 SFU
- IFN-γ ELISpot response [22]: 11 SFU
- IFN-γ ELISpot response [23]: 24 SFU
- Significant response as percentage of maximal peptide SFU [24]: ′′ (21-40% = ′′)

Sequence: PFPEQPEQPYPQQ
- IFN-γ ELISpot response [1]: 0 SFU
- IFN-γ ELISpot response [3]: 14 SFU
- Significant response as percentage of maximal peptide SFU (patient E, max peptide 224 SFU): (6-10% = ^)
- IFN-γ ELISpot response [4]: 8 SFU
- IFN-γ ELISpot response [5]: 1 SFU
- IFN-γ ELISpot response [6]: 11 SFU
- IFN-γ ELISpot response [7]: 1 SFU
- IFN-γ ELISpot response [8]: 14 SFU
- Significant response as percentage of maximal peptide SFU [9]: ′ (11-20% = ′)
- Significant response as percentage of maximal peptide SFU (patient II, max peptide 15 SFU): + (>70% = +)
- Significant response as percentage of maximal peptide SFU (patient M, max peptide 48 SFU): ′ (11-20% = ′)
- IFN-γ ELISpot response [10]: 1 SFU
- IFN-γ ELISpot response [11]: 15 SFU
- IFN-γ ELISpot response [12]: 19 SFU
- Significant response as percentage of maximal peptide SFU (patient Q, max peptide 97 SFU): ′ (11-20% = ′)
- IFN-γ ELISpot response [13]: 2 SFU
- IFN-γ ELISpot response [14]: 7 SFU
- IFN-γ ELISpot response [15]: 5 SFU
- IFN-γ ELISpot response [16]: 3 SFU
- Significant response as percentage of maximal peptide SFU [17]: ′′ (21-40% = ′′)
- IFN-γ ELISpot response [18]: 4 SFU
- IFN-γ ELISpot response [19]: 3 SFU
- IFN-γ ELISpot response [20]: 5 SFU
- IFN-γ ELISpot response [21]: 9 SFU
- IFN-γ ELISpot response [22]: 2 SFU
- IFN-γ ELISpot response [23]: 6 SFU

Sequence: PFPLQPEQPFPQP
- IFN-γ ELISpot response [1]: 6 SFU
- Significant response as percentage of maximal peptide SFU [2]: ′′′ (41-70% = ′′′)
- IFN-γ ELISpot response [3]: 30 SFU
- Significant response as percentage of maximal peptide SFU (patient E, max peptide 224 SFU): ′ (11-20% = ′)
- IFN-γ ELISpot response [4]: 35 SFU
- Significant response as percentage of maximal peptide SFU (patient F, max peptide 178 SFU): ′ (11-20% = ′)
- IFN-γ ELISpot response [5]: 2 SFU
- IFN-γ ELISpot response [6]: 24 SFU
- IFN-γ ELISpot response [7]: 11 SFU
- Significant response as percentage of maximal peptide SFU (patient H, max peptide 17 SFU): ′′′ (41-70% = ′′′)
- IFN-γ ELISpot response [8]: 28 SFU
- Significant response as percentage of maximal peptide SFU [9]: ′′ (21-40% = ′′)
- Significant response as percentage of maximal peptide SFU (patient II, max peptide 15 SFU): + (>70% = +)
- Significant response as percentage of maximal peptide SFU (patient J, max peptide 196 SFU): ′′ (21-40% = ′′)
- Significant response as percentage of maximal peptide SFU (patient K, max peptide 53 SFU): ′′′ (41-70% = ′′′)
- Significant response as percentage of maximal peptide SFU (patient M, max peptide 48 SFU): ′′′ (41-70% = ′′′)
- IFN-γ ELISpot response [10]: 7 SFU
- IFN-γ ELISpot response [11]: 27 SFU
- Significant response as percentage of maximal peptide SFU (patient P, max peptide 64 SFU): ′′′ (41-70% = ′′′)
- IFN-γ ELISpot response [12]: 43 SFU
- Significant response as percentage of maximal peptide SFU (patient Q, max peptide 97 SFU): ′′′ (41-70% = ′′′)
- IFN-γ ELISpot response [13]: 23 SFU
- Significant response as percentage of maximal peptide SFU (patient U, max peptide 81 SFU): ′′ (21-40% = ′′)
- IFN-γ ELISpot response [14]: 21 SFU
- Significant response as percentage of maximal peptide SFU (patient V, max peptide 35 SFU): ′′′ (41-70% = ′′′)
- Significant response as percentage of maximal peptide SFU (patient W, max peptide 30 SFU): + (>70% = +)
- IFN-γ ELISpot response [15]: 9 SFU
- Significant response as percentage of maximal peptide SFU (patient eight, max peptide 12 SFU): + (>70% = +)
- IFN-γ ELISpot response [16]: 8 SFU
- Significant response as percentage of maximal peptide SFU [17]: + (>70% = +)
- IFN-γ ELISpot response [18]: 22 SFU
- Significant response as percentage of maximal peptide SFU (patient four, max peptide 44 SFU): ′′′ (41-70% = ′′′)
- IFN-γ ELISpot response [19]: 27 SFU
- Significant response as percentage of maximal peptide SFU (patient seven, max peptide 27 SFU): + (>70% = +)
- IFN-γ ELISpot response [20]: 8 SFU
- IFN-γ ELISpot response [21]: 52 SFU
- IFN-γ ELISpot response [22]: 15 SFU
- IFN-γ ELISpot response [23]: 24 SFU
- Significant response as percentage of maximal peptide SFU [24]: ′′ (21-40% = ′′)

Sequence: PFPLQPEQPVPEQPQ
- Cross-reactive T cell response (subject A, 11-17yrs): 2 SFU
- Cross-reactive T cell response (subject D, 11-17yrs): 9 SFU
- Cross-reactive T cell response (subject E, 11-17yrs): 3 SFU
- Significant response as a percentage of maximal peptide SFU (subject F, 11-17yrs): ′ (11-20% = ′)
- Cross-reactive T cell response (subject F, 11-17yrs): 20 SFU
- Cross-reactive T cell response (subject G, 11-17yrs): 0 SFU
- Cross-reactive T cell response (subject H): 3 SFU
- Cross-reactive T cell response (subject I (3-5yrs/6-10yrs part)): 1 SFU
- Cross-reactive T cell response (subject J (3-5yrs/6-10yrs part)): 3 SFU
- Cross-reactive T cell response (subject K (3-5yrs/6-10yrs part)): 5 SFU
- Cross-reactive T cell response (subject P, 11-17yrs): 6 SFU
- Cross-reactive T cell response (subject Q, 11-17yrs): 5 SFU
- Significant response as a percentage of maximal peptide SFU (subject T, 11-17yrs): ′′ (21-40% = ′′)
- Cross-reactive T cell response (subject T, 11-17yrs): 21 SFU
- Significant response as a percentage of maximal peptide SFU (subject U, 11-17yrs): ′ (11-20% = ′)
- Cross-reactive T cell response (subject U, 11-17yrs): 10 SFU
- Cross-reactive T cell response (subject V (3-5yrs/6-10yrs part)): 7 SFU
- Cross-reactive T cell response (subject W (3-5yrs/6-10yrs part)): 11 SFU
- Cross-reactive T cell response (subject Y (3-5yrs/6-10yrs part)): 2 SFU
- Cross-reactive T cell response (subject five (3-5yrs/6-10yrs part)): 1 SFU
- Cross-reactive T cell response (subject nine, 11-17yrs): 1 SFU
- Cross-reactive T cell response (subject seven (3-5yrs/6-10yrs part)): 1 SFU
- Cross-reactive T cell response (subject six (3-5yrs/6-10yrs part)): 3 SFU
- Significant response as a percentage of maximal peptide SFU (subject ten): + (>70% = +)
- Cross-reactive T cell response (subject ten (3-5yrs/6-10yrs part)): 11 SFU
- Cross-reactive T cell response (subject two (3-5yrs/6-10yrs part)): 5 SFU
